The values below are quoted from earlier work in US11737988B2, “Anti-hypertensive and cholesterol-lowering fixed-dose combination and method of manufacture” (CardioPharma, Inc., priority 2019, dated 2023).

The conditions of this data set: cholesterol-lowering drugs (statins); known to those of skill in the art.

Usually bioavailability stands for dose-corrected exposure relative to a reference, in per cent. As to `COCc1c(C(C)C)nc(C(C)C)c(/C=C/[C@@H](O)C[C@@H](O)CC(=O)O)c1-c1ccc(F)cc1` [cerivastatin], the bioavailability was 60%.
`O=C(O)C[C@H](O)C[C@H](O)/C=C/c1c(C2CC2)nc2ccccc2c1-c1ccc(F)cc1` [pitvastatin]: the bioavailability is on record as 60%.
